Measurements published in PMC2889921 (The Journal of organic chemistry, 2009).

Molecular target: T1, PKCζ (protein kinase C ζ) (Homo sapiens, UniProt Q05513)
T1 sequence (Q05513 1-592): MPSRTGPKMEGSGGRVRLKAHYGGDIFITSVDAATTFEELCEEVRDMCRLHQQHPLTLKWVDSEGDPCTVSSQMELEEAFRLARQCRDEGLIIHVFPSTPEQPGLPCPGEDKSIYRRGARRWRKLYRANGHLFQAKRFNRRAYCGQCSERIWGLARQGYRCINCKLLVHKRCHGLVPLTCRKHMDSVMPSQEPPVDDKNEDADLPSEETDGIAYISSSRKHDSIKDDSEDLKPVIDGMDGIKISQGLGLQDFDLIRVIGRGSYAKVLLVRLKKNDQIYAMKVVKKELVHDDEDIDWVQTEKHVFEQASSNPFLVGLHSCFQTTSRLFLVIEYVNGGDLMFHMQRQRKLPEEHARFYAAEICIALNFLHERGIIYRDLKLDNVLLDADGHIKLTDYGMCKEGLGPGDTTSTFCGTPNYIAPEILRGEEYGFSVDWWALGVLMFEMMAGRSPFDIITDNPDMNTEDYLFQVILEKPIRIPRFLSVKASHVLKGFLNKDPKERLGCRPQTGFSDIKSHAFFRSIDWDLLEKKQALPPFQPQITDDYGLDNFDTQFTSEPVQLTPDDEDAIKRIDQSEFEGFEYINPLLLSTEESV
Assay: homogeneous TR-FRET kinase activity assay
Type: biochemical

| IC50 [µM] | Substance |
| --- | --- |
| 16.4 | fibrosterol sulfate A [compound 1] |
| 5.6 | fibrosterol sulfate B [compound 2] |
